Patent US20230114207A1, “THE COMBINATION OF CYCLIN DEPENDENT KINASE 7 INHIBITOR AND IMMUNOTHERAPY FOR TREATMENT OF CANCER” (Dana-Farber Cancer Institute, Inc., priority 2019, published 2023)

How the values were obtained:
OT-I CD8^+ T cells = experiment: Ex vivo OT-I T cell assay; format: cell-based, mouse
Method: The spleen of OT-I mice was minced with a razor and mashed through a 40 µm strainer to form a single-cell suspension. Separated cells were then treated with RBC lysis buffer and a number of 5×10^5 cells were seeded in a 96-well U-bottom plate. For conditioned medium culture assay, RPP631 cells were treated with either DMSO or YKL-5-124 for 48 hr and drug was washed off after first 6-hour treatment. Subsequently, DMSO-conditioned medium or YKL-5-124-conditioned medium were collected and added to above single-cell suspension in a 96-well U-bottom plate in the presence of Ova257-264 peptide (10 μg/ml, GenScript, Cat #RP10611) for 4 days. Alternatively, DMSO or YKL-5-124 was added directly to single-cell suspension in the presence of Ova257-264 peptide for 4 days in the T cell assay medium (complete RPMI with HEPES, sodium pyruvate, MEM nonessential amino acids and 2-mercaptethonal). T cell activation markers CD69, TNFα. and IFNγ were analyzed by flow cytometry.

[1] = tested on: SCLC cells (RPP631, DMS79, GLC16, NCI-H69, NCI-H82); experiment: Cell viability assay (CCK-8); format: cell-based, mouse, human
Method: Cells were seeded in 96-well plates (0.01-0.02×10^6 cells/well) in media and treated with YKL-5-124 at indicated concentrations and time points. Cell viability was measured using the MTS-based CCK-8 assay (Dojindo, Cat #CK04). Absorption at 450 nm was measured 3 hr after addition of CCK-8 reagent to cells.

[2] = tested on: INSM1, ASCL1, NFIB and MYC in DMS79 and GLC16; experiment: RT-qPCR of super enhancer (SE)-associated genes; format: cell-based, human; details: 24 hr
Method: (§1) Cell pellets were collected and then subjected to total RNA extraction using RNeasy Plus Mini Kit (QIAGEN, Cat #74136) according to the manufacturer's instructions, or using TRIzol:Chloroform phase-separation by centrifugation followed by RNA precipitation using isopropanol. The extracted RNA was reversely transcribed into cDNA using the High-Capacity RNA-to-cDNA™ Kit (Thermo Fisher Scientific, Cat #4387406) according to the manufacturer's instructions. The obtained cDNA samples were diluted and used for RT-qPCR. PowerUp™ SYBR™ Green Master Mix (Thermo Fisher Scientific, Cat #A25742) or TaqMan Gene Expression Master Mix (Life Technologies, Cat #4369514). Gene specific primers with sequences listed in Table 3 were used for PCR amplification and detection on the StepOnePlus™ Real-Time PCR System (Thermo Fisher Scientific). RT-qPCR data were normalized to Actb (mouse cells) or GUSB (human cells) and presented as fold changes of gene expression in the test sample compared to the control.

RPP orthotopic model = experiment: Treatment study in RPP orthotopic SCLC model; format: in vivo, mouse
Method: All animal studies were reviewed and approved by the Institutional Animal Care and Use Committee (IACUC) at the New York University Langone Health (NYULH) and Dana-Farber Cancer Institute (DFCI). From 6 weeks of age, mice were induced with adenovirus-Cre recombinase (Ad-Cre) by intratracheal intubation to allow cre-lox-mediated recombination of floxed Rb1, p53 and p130 alleles. For syngeneic orthotopic models, ultrasound-guided transthoracic injection was performed using 200,000 RPP631, RP or RPP-MYC cells in 30 μL PBS directly into the lung of 6 to S-week-old C57BL/6 (Jackson Laboratory, Stock No: 000664). For OT-IT cell assay, OT-I mice were purchased from the Jackson Laboratory (Stock No: 003S31). Both males and females mice were used and all mice were maintained in accordance with the respective NYULH and DFCI on the care, welfare, and treatment of laboratory animals. […]
Animals were anesthetized with isoflurane to perform MRI of the lung field using BioSpec USR70/30 horizontal bore system (Bruker) to scan 24 consecutive sections. Tumor volumes within the whole lung were quantified using 3-D slicer software to reconstruct MRI volumetric measurements as described previously. […]

[3] = tested on: C-terminal domain (CTD) phosphorylation of RNA Pol II; experiment: Western blotting of RNA Pol II CTD phosphorylation in SCLC lines; format: cell-based, mouse, human; details: 24 hr
Method: (§2) Cells in culture were collected by centrifuging at 1,500 rpm and then washed with ice-cold PBS twice to completely remove residual medium. RIPA lysis buffer (Thermo Fisher Scientific, Cat #89900) supplemented with Halt™ Protease and Phosphatase Inhibitor Cocktail (Thermo Fisher Scientific, Cat #78440) was added to cell pellets to extract protein. Protein concentrations in lysates were measured by Pierce™ BCA Protein Assay Kit (Thermo Fisher Scientific, Cat #23225) and followed by the addition of SDS loading buffer (6×) and heated at 95° C. for 5 min. Equal amount of protein samples was subjected to 4-20% gradient gel SDS-PAGE and transferred to a nitrocellulose membrane (Bio-Rad, Cat #1704271). The membrane was blocked in Odyssey® Blocking Buffer (LI-COR, Cat #927-50003) at room temperature for 1 hour and incubated with appropriate antibodies at 4° C. overnight (Key Resources Table). Antibodies were diluted in TBST (TBS with 0.1% Tween) with 20% LI-COR Odyssey Blocking Buffer. On the next day, the membrane was washed with TBST (TBS with 0.1% Tween) four times and incubated with appropriate secondary antibodies (LI-COR, anti-Rabbit, Cat #925-32213; anti-Mouse, Cat #925-68072) at room temperature for 1 hour. Membranes were imaged using the LI-COR Odyssey® Imaging System.

[4] = tested on: HAP1 cells expressing CDK7 wild-type (WT); experiment: RT-qPCR of TNF and CXCL10 in HAP1 CDK7 WT cells; format: cell-based, human; details: 100 nM, 48 hr
Method: as §1

[5] = tested on: CDK1 and CDK2 T-loop phosphorylation; experiment: Western blotting of CDK1 and CDK2 T-loop phosphorylation in SCLC lines; format: cell-based, mouse, human; details: representative panel of SCLC lines, 24 hours; 'as low as'
Method: as §2

[6] = tested on: TNFα, CXCL9 and CXCL10 in BALF; experiment: Luminex analysis of murine BAL fluid; format: in vivo, mouse; details: after 7-day treatment
Method: Mouse lung bronchoalveolar lavage (BAL) was performed by intratracheal injection of 2 ml of sterile PBS followed by collection by aspiration. TNFα, CXCL9 and CXCL10 levels were measured using mouse Cytokine/Chemokine 32-plex Assay (MILLIPLEX, Millipore) on Luminex® SD system (Luminex). Concentrations (pg/ml) of each protein were derived from 5-parameter curve fitting models according to the manufacturer's instructions.

In the case of C=CC(=O)Nc1ccc(C(=O)Nc2n[nH]c3c2CN(C(=O)N[C@H](CN(C)C)c2ccccc2)C3(C)C)cc1 [YKL-5-124], the “CD8^+ T cell activity” value (OT-I CD8^+ T cells; OT-I T cells directly treated) is reported as “No significant effect”, the “percentage of CD69^+, TNFα^+ and IFNγ^+ CD8^+ T cells” value (OT-I CD8^+ T cells; YKL-5-124-conditioned medium of mouse SCLC cells vs DMSO-conditioned medium) is reported as “significant increase” and the “growth rate (cell viability) compared to control cells” value ([1]; all tested concentrations, up to 7 days) is reported as “significant reduction”. For the same molecule, the “kind of growth effect” value ([1]; up to day 7) was “cytostatic effect with a tendency of cytotoxic effects at longer time points”, the “expression of super enhancer (SE)-associated genes including INSM1, ASCL1, NFIB and MYC” value [2] was “no effect” and the “added median survival benefit” value (RPP orthotopic model; RPP model, vs control) was “approximately 30 days”. The “tumor response / tumor growth (MRI tumor volume)” value (RPP orthotopic model; RPP orthotopic model, 2- to 3-week) was “significant tumor response”, the “C-terminal domain (CTD) phosphorylation of RNA Pol II (Ser2, Ser5)” value [3] was “no effect” and the “TNF and CXCL10 expression” value [4] was “significant increase”. For the same molecule, the “concentrations robustly inhibiting CDK1 and CDK2 T-loop phosphorylation” value [5] was at least 50 nM and the “TNFα, CXCL9 and CXCL10 in BALF” value [6] was “pronounced increase”.
